Reference: patent US20240409536A1, “COMPOUNDS AND METHODS FOR MODULATING SPLICING” (REMIX THERAPEUTICS INC., priority 2021, published 2024)
Counter-ions that a name gives are not always drawn.

Test system: Target C
Assay: HiBiT protein abundance assay, Target C (K562 HiBiT knock-in cells)
Type: cell-based, human
Conditions: 24 hours
Procedure, shortened: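 Protein abundance read by HiBiT lytic luminescence after 24 h compound exposure (37 °C) of knock-in K562 cells, 10000 cells/well in IMDM+1% FBS. Dosing: 10 points, 3-fold, top 10 μM final, ≤0.25% DMSO. Four-parameter logistic fit gave concentration reducing abundance to 50% of untreated control.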

Row | SMILES | IC50 [µM]
1 | Cc1cn2cc(NC(=O)c3ccc(N4C[C@@H](C)N[C@@H](C)C4)c4ccnnc34)nc(C)c2n1 [Compound 172, N-{2,8-dimethylimidazo[1,2-a]pyrazin-6-yl}-5-[(3R,5S)-3,5-dimethylpiperazin-1-yl]cinnoline-8-carboxamide] | > 10
2 | Cc1cn2cc(NC(=O)c3ccc(N4CCN5CCC[C@H]5C4)c4ccnnc34)cc(F)c2n1 [Compound 154] | 1 to 10
3 | Cc1cn2cc(NC(=O)c3ccc(C4CCN(C)CC4)c4ccnnc34)cc(F)c2n1 [Compound 140] | > 10
4 | CC[C@H]1CN(c2ccc(C(=O)Nc3cc(F)c4nc(C)cn4c3)c3nnccc23)CCN1 [Compound 152] | > 10
5 | Cc1cn2cc(NC(=O)c3ccc(N4CCN(C)[C@H](C)C4)c4ccnnc34)cc(F)c2n1 [Compound 149] | 1 to 10
6 | Cc1cn2cc(NC(=O)c3ccc(N4CC5(CNC5)C4)c4ccnnc34)cc(F)c2n1 [Compound 131] | 1 to 10
7 | Cc1cn2cc(NC(=O)c3ccc(N4CCC5(CCN5)CC4)c4nccnc34)cc(F)c2n1 [Compound 189, 8-{1,7-diazaspiro[3.5]nonan-7-yl}-N-{8-fluoro-2-methylimidazo[1,2-a]pyridin-6-yl}quinoxaline-5-carboxamide] | 1 to 10
8 | Cc1cn2nc(NC(=O)c3ccc(N4CCNCC4)c4ccnnc34)cc(C)c2n1 [Compound 100] | 0.1 to 1
9 | CN[C@H]1CCN(c2ccc(C(=O)Nc3cc(F)c4nc(C)cn4c3)c3nccnc23)C1 (single isomer, unassigned) [Compound 194, N-{8-fluoro-2-methylimidazo[1,2-a]pyridin-6-yl}-8-[3-(methylamino)pyrrolidin-1-yl]quinoxaline-5-carboxamide] | 0.1 to 1
10 | Cc1cn2cc(NC(=O)c3ccc(N4CCNC(C)(C)C4)c4nccnc34)cc(F)c2n1 [Compound 220, 8-(3,3-dimethylpiperazin-1-yl)-N-{8-fluoro-2-methylimidazo[1,2-a]pyridin-6-yl}quinoxaline-5-carboxamide] | 1 to 10
11 | COc1cnc2c(C(=O)Nc3cc(F)c4nc(C)cn4c3)ccc(N3CCNCC3)c2n1 [Compound 225, N-{8-fluoro-2-methylimidazo[1,2-a]pyridin-6-yl}-2-methoxy-8-(piperazin-1-yl)quinoxaline-5-carboxamide] | > 10
12 | COc1ccc2c(N3CCNCC3)ccc(C(=O)Nc3cc(F)c4nc(C)cn4c3)c2n1 [Compound 169, N-{8-fluoro-2-methylimidazo[1,2-a]pyridin-6-yl}-2-methoxy-5-(piperazin-1-yl)quinoline-8-carboxamide] | 1 to 10
13 | CN[C@@H]1CCN(c2ccc(C(=O)Nc3cc(F)c4nc(C)cn4c3)c3nccnc23)C1 (single isomer, unassigned) [Compound 193, N-{8-fluoro-2-methylimidazo[1,2-a]pyridin-6-yl}-8-[3-(methylamino)pyrrolidin-1-yl]quinoxaline-5-carboxamide] | 1 to 10
14 | Cc1cn2cc(NC(=O)c3ccc(N4C[C@H]5C[C@@H]4C5N(C)C)c4ccnnc34)cc(F)c2n1 (stereo partly shown) [Compound 155] | > 10
15 | O=C(Nc1cn[nH]c1)c1ccc(N2CCNCC2)c2ccnnc12 [Compound 126] | > 10
16 | Cc1cn2cc(NC(=O)c3ccc(N4CC(C)(C)NC(C)(C)C4)c4nccnc34)cc(F)c2n1 [Compound 219, N-{8-fluoro-2-methylimidazo[1,2-a]pyridin-6-yl}-8-(3,3,5,5-tetramethylpiperazin-1-yl)quinoxaline-5-carboxamide] | 1 to 10
17 | CNC1CCN(c2ccc(C(=O)Nc3cc(F)c4nc(C)cn4c3)c3nc(C)ccc23)C1 (stereo not shown) [Compound 196, N-{8-fluoro-2-methylimidazo[1,2-a]pyridin-6-yl}-2-methyl-5-[3-(methylamino)pyrrolidin-1-yl]quinoline-8-carboxamide 2,2,2-trifluoroacetate] | 1 to 10
18 | Cc1cn2cc(NC(=O)c3ccc(N4CCNCC4)c4cccnc34)cc(F)c2n1 [Compound 165, N-{8-fluoro-2-methylimidazo[1,2-a]pyridin-6-yl}-5-(piperazin-1-yl)quinoline-8-carboxamide] | 1 to 10
19 | COc1cnc2c(N3CCC(N(C)C)CC3)ccc(C(=O)Nc3cc(F)c4nc(C)cn4c3)c2n1 [Compound 206, 8-[4-(dimethylamino)piperidin-1-yl]-N-{8-fluoro-2-methylimidazo[1,2-a]pyridin-6-yl}-3-methoxyquinoxaline-5-carboxamide; trifluoroacetic acid] | 0.1 to 1

Second part, the compound after the results:

Row | IC50 [µM] | SMILES
20 | 1 to 10 | Cc1cn2cc(NC(=O)c3ccc(N4CCN(C)CC4)c4ccnnc34)cc(F)c2n1 [Compound 127]
21 | 1 to 10 | COc1cc(NC(=O)c2ccc(N3CCNCC3)c3ccnnc23)cn2cc(C)nc12 [Compound 176, N-{8-methoxy-2-methylimidazo[1,2-a]pyridin-6-yl}-5-(piperazin-1-yl)cinnoline-8-carboxamide trifluoroacetate]
22 | 1 to 10 | Cc1cn2cc(NC(=O)c3ccc(N4CCC(N(C)C)C4)c4ccnnc34)cc(F)c2n1 (stereo not shown) [Compound 134]
23 | 0.1 to 1 | COc1cnc2c(N3C[C@@H](C)N[C@@H](C)C3)ccc(C(=O)Nc3cc(F)c4nc(C)cn4c3)c2n1 [Compound 205, 8-[(3R,5S)-3,5-dimethylpiperazin-1-yl]-N-{8-fluoro-2-methylimidazo[1,2-a]pyridin-6-yl}-3-methoxyquinoxaline-5-carboxamide; trifluoroacetic acid]
24 | 1 to 10 | Cc1cn2cc(NC(=O)c3ccc(N4CCNC5(CCOC5)C4)c4nccnc34)cc(F)c2n1 (stereo not shown) [Compound 373]
25 | 1 to 10 | CCC1CN(c2ccc(C(=O)Nc3cc(F)c4nc(C)cn4c3)c3nnccc23)CCN1 (stereo not shown) [Compound 130]
26 | 1 to 10 | Cc1cn2cc(NC(=O)c3ccc(N4CCC(NC(C)(C)C)CC4)c4ccnnc34)cc(F)c2n1 [Compound 138]
27 | > 10 | Cc1cn2cc(NC(=O)c3ccc(N4C[C@@H](C)NC5(CC5)C4)c4nccnc34)cc(F)c2n1 [Compound 376]
28 | 1 to 10 | Cc1cnc2c(N3CCNCC3)ccc(C(=O)Nc3cc(F)c4nc(C)cn4c3)c2n1 [Compound 197, N-{8-fluoro-2-methylimidazo[1,2-a]pyridin-6-yl}-3-methyl-8-(piperazin-1-yl)quinoxaline-5-carboxamide; trifluoroacetic acid]
29 | 1 to 10 | COc1cc2c(N3CCNCC3)ccc(C(=O)Nc3cc(F)c4nc(C)cn4c3)c2nn1 [Compound 183, N-{8-fluoro-2-methylimidazo[1,2-a]pyridin-6-yl}-3-methoxy-5-(piperazin-1-yl)cinnoline-8-carboxamide]
30 | 1 to 10 | Cc1cn2cc(NC(=O)c3ccc(N4CCNC5(CC5)C4)c4ccnnc34)cc(F)c2n1 [Compound 105]
31 | > 10 | Cc1nc(NC(=O)c2ccc(N3CCNCC3)c3ccnnc23)cc2cn(C)nc12 [Compound 178, N-{2,7-dimethylpyrazolo[3,4-c]pyridin-5-yl}-5-(piperazin-1-yl)cinnoline-8-carboxamide]
32 | 1 to 10 | Cc1cn2cc(NC(=O)c3ccc(N4C[C@@H](C)N[C@@H](C)C4)c4ccnnc34)cc(F)c2n1 [Compound 161, 5-(3,5-dimethylpiperazin-1-yl)-N-{8-fluoro-2-methylimidazo[1,2-a]pyridin-6-yl}cinnoline-8-carboxamide 2,2,2-trifluoroacetate]
33 | 1 to 10 | Cc1cn2cc(NC(=O)c3ccc(N4CCN(C)[C@@H](C)C4)c4ccnnc34)cc(F)c2n1 [Compound 150]
34 | 1 to 10 | Cc1cn2cc(NC(=O)c3ccc(N4C[C@H](C)NC5(CC5)C4)c4nccnc34)cc(F)c2n1 [Compound 377]
35 | 1 to 10 | CNCC1CCN(c2ccc(C(=O)Nc3cc(F)c4nc(C)cn4c3)c3nccnc23)CC1 [Compound 192, N-{8-fluoro-2-methylimidazo[1,2-a]pyridin-6-yl}-8-{4-[(methylamino)methyl]piperidin-1-yl}quinoxaline-5-carboxamide trifluoroacetate]
36 | 1 to 10 | CCNC1CCN(c2ccc(C(=O)Nc3cc(F)c4nc(C)sc4c3)c3nnccc23)CC1 [Compound 221, 5-[4-(ethylamino)piperidin-1-yl]-N-(4-fluoro-2-methyl-1,3-benzothiazol-6-yl)cinnoline-8-carboxamide]
37 | 0.1 to 1 | COc1cnc2c(C(=O)Nc3cc(F)c4nc(C)cn4c3)ccc(N3C[C@@H](C)N[C@@H](C)C3)c2n1 [Compound 223]
38 | 0.1 to 1 | Cc1cn2cc(NC(=O)c3ccc(N4CCNC(C)C4)c4ccnnc34)cc(F)c2n1 (stereo not shown) [Compound 128]
39 | > 10 | CCc1cc(NC(=O)c2ccc(N3CCNCC3)c3ccnnc23)nn2cc(C)nc12 [Compound 168, N-{8-ethyl-2-methylimidazo[1,2-b]pyridazin-6-yl}-5-(piperazin-1-yl)cinnoline-8-carboxamide trifluoroacetic acid salt]
40 | 1 to 10 | Cc1cn2cc(NC(=O)c3ccc(N4CCC(N5CCCC5)C4)c4ccnnc34)cc(F)c2n1 (stereo not shown) [Compound 133]
41 | > 10 | Cc1cn2cc(NC(=O)c3ccc(N4CCNC5(COC5)C4)c4nccnc34)cc(F)c2n1 [Compound 372]
42 | 0.1 to 1 | COc1ncc2c(N3C[C@@H](C)N[C@@H](C)C3)ccc(C(=O)Nc3cn4cc(C)nc4c(OC)n3)c2n1 [Compound 378]
43 | > 10 | Cc1cn2cc(NC(=O)c3ccc(N4CCNCC4)c4nnccc34)cc(F)c2n1 [Compound 166, N-(8-fluoro-2-methylimidazo[1,2-a]pyridin-6-yl)-8-(piperazin-1-yl)cinnoline-5-carboxamide 2,2,2-trifluoroacetate]
44 | 1 to 10 | CCNC1CCN(c2ccc(C(=O)Nc3cc(F)c4nc(C)cn4c3)c3nccnc23)CC1 [Compound 191, 8-[4-(ethylamino)piperidin-1-yl]-N-{8-fluoro-2-methylimidazo[1,2-a]pyridin-6-yl}quinoxaline-5-carboxamide]
45 | 1 to 10 | COc1cnc2c(N3CCNCC3)ccc(C(=O)Nc3cc(F)c4nc(C)cn4c3)c2n1 [Compound 207, N-{8-fluoro-2-methylimidazo[1,2-a]pyridin-6-yl}-3-methoxy-8-(piperazin-1-yl)quinoxaline-5-carboxamide; bis(trifluoroacetic acid)]
46 | 1 to 10 | Cc1cn2cc(NC(=O)c3ccc(N4CCN[C@H](C)C4)c4ccnnc34)cc(F)c2n1 [Compound 146]
